According to patent publication US4160829A, “Antibacterial 1,2,4-oxadiazolylacetamido cephalosporins” (Gist-Brocades N.V., priority 1972, dated 1979):
≈ marks a conversion by molar mass, not a printed value. Like-named read-outs stand apart in the source and are kept apart here.

Assays:
[1] = system: Bac.Subt.ATCC 6633; experiment: agar serial dilution test; type: cell-based, Bacillus subtilis; conditions: agar serial dilution, 24 hours, 37° C.
[2] = system: Staph.aureus A 321; experiment: agar serial dilution test; type: cell-based, Staphylococcus aureus; conditions: agar serial dilution, 24 hours, 37° C.; for MIC: Staphylococcus aureus, A321, 24 h, read-out: minimal inhibitory concentration (MIC)
[3] = system: Staph.aureus A 2000; experiment: agar serial dilution test; type: cell-based, Staphylococcus aureus; conditions: agar serial dilution, 24 hours, 37° C.; for MIC: Staphylococcus aureus, A2000, 24 h, read-out: minimal inhibitory concentration (MIC)
[4] = system: Staph.aureus A 2001; experiment: agar serial dilution test; type: cell-based, Staphylococcus aureus; conditions: agar serial dilution, 24 hours, 37° C.; for MIC: Staphylococcus aureus, A2001, 24 h, read-out: minimal inhibitory concentration (MIC)
[5] = system: Strep. faec. L 80; experiment: agar serial dilution test; type: cell-based, Streptococcus faecalis; conditions: agar serial dilution, 24 hours, 37° C.; for MIC: Enterococcus faecalis, read-out: minimal inhibitory concentration (MIC)
[6] = system: Dipl.pneum. L 54; experiment: agar serial dilution test; type: cell-based, Diplococcus pneumoniae; conditions: agar serial dilution, 24 hours, 37° C.; for MIC: Streptococcus pneumoniae, read-out: minimal inhibitory concentration (MIC)
[7] = system: Past.multo. A 723; experiment: agar serial dilution test; type: cell-based, Pasteurella multocida; conditions: agar serial dilution, 24 hours, 37° C.; for MIC: Pasteurella multocida, read-out: minimal inhibitory concentration (MIC)
[8] = system: Kleb.pneum. A 809; experiment: agar serial dilution test; type: cell-based, Klebsiella pneumoniae; conditions: agar serial dilution, 24 hours, 37° C.; for MIC: Klebsiella pneumoniae, read-out: minimal inhibitory concentration (MIC)
[9] = system: Salm.dubl. P 43; experiment: agar serial dilution test; type: cell-based, Salmonella dublin; conditions: agar serial dilution, 24 hours, 37° C.; for MIC: Salmonella enterica, read-out: minimal inhibitory concentration (MIC)
[10] = system: Salm.typh. R 127; experiment: agar serial dilution test; type: cell-based; conditions: 37° C.; for minimal inhibitory concentration (MIC): 24 hours
[11] = system: Esch.coli U 20; experiment: agar serial dilution test; type: cell-based, Escherichia coli; conditions: for MIC: Escherichia coli
[12] = system: Shig.equir. T 3; experiment: agar serial dilution test; type: cell-based; conditions: 37° C.; for MIC: 24 h, read-out: minimal inhibitory concentration (MIC)
[13] = system: Pseud.aerug. H 10; experiment: agar serial dilution test; type: cell-based; conditions: agar serial dilution, 24 hours, 37° C.; for MIC: read-out: minimal inhibitory concentration (MIC)
[14] = system: Pseud.aerug. 2396; experiment: agar serial dilution test; type: cell-based; conditions: agar serial dilution, 24 hours, 37° C.; for MIC: read-out: minimal inhibitory concentration (MIC)
[15] = system: Pseud.aerug. Wyeth A 1058; experiment: agar serial dilution test; type: cell-based; conditions: agar serial dilution, 24 hours, 37° C.; for MIC: read-out: minimal inhibitory concentration (MIC)
[16] = system: Prot.rettg. A 821; experiment: agar serial dilution test; type: cell-based, Proteus rettgeri; conditions: agar serial dilution, 24 hours, 37° C.; for MIC: Providencia rettgeri, 24 h, read-out: minimal inhibitory concentration (MIC)
[17] = system: Prot.mirab. H 3; experiment: agar serial dilution test; type: cell-based, Proteus mirabilis; conditions: agar serial dilution, 24 hours, 37° C.; for MIC: Proteus mirabilis, read-out: minimal inhibitory concentration (MIC)
[18] = system: Prot.mirab. L 93; experiment: agar serial dilution test; type: cell-based, Proteus mirabilis; conditions: for MIC: Proteus mirabilis
[19] = system: Prot.mirab. A 1200; experiment: agar serial dilution test; type: cell-based, Proteus mirabilis; conditions: agar serial dilution, 24 hours, 37° C.
[20] = system: Prot.morg. 2241; experiment: agar serial dilution test; type: cell-based; conditions: agar serial dilution, 24 hours, 37° C.; for MIC: 24 h, read-out: minimal inhibitory concentration (MIC)
[21] = system: Staph.aureus A 355; experiment: micro serial dilution test; type: cell-based, Staphylococcus aureus; conditions: micro serial dilution (in brackets), about 18 hours, 30° C. or 37° C., penicillinase-producing strain; for MIC: Staphylococcus aureus, A355, read-out: minimal inhibitory concentration (MIC)
From the text: Two drops of a stock solution of the test compound (antibiotic) in a known concentration were brought into the first hole of a test plate with 9 numbered holes with a sterile Pasteur pipette. After rinsing this pipette three times with a physiological NaCl-solution, two drops of a stock solution of the test organism in a culture medium were brought in all the holes except for hole 8. In the first hole, the solution of the tested compound had been half diluted, then by stirring the liquid in the first hole and adding two drops of this mixture to the second hole and so on until hole 8, dilutions of the test compound solution were obtained in geometrical progression. The hole 9 contained no antibiotic and served for checking the growth of the testogranism in a blank medium. The test plate was incubated at 30° C. or 37° C. for about 18 hours.
^1 Penicillinase-producing strain

[22] = system: Staph.aureus A 2000; experiment: micro serial dilution test; type: cell-based, Staphylococcus aureus; conditions: micro serial dilution (in brackets), about 18 hours, 30° C. or 37° C.; for MIC: Staphylococcus aureus, A2000, 18 h, read-out: minimal inhibitory concentration (MIC)
[23] = system: Staph.aureus A 2001; experiment: micro serial dilution test; type: cell-based, Staphylococcus aureus; conditions: micro serial dilution (in brackets), about 18 hours, 30° C. or 37° C.; for MIC: Staphylococcus aureus, A2001, 18 h, read-out: minimal inhibitory concentration (MIC)
[24] = system: Haem.infl. A 1030; experiment: micro serial dilution test; type: cell-based; conditions: micro serial dilution (in brackets), about 18 hours, 30° C. or 37° C.
[25] = system: Staph.aureus A 355; experiment: agar serial dilution test; conditions: penicillinase-producing strain; for MIC: Staphylococcus aureus, A355, 24 h, read-out: minimal inhibitory concentration (MIC), agar serial dilution, 24 hours, 37° C.
[26] = agar serial dilution, 24 hours, 37° C.

## COC(=O)C(C(=O)N[C@@H]1C(=O)N2C(C(=O)O)=C(COC(C)=O)CS[C@H]12)c1nc(C)no1 (stereo partly drawn) [Example 38, 7-[3-methyl-α-carbomethoxy-1,2,4-oxadiazol-5-yl-acetamido]cephalosporanic acid]
[1]; Bacillus subtilis, ATCC6633, 24 h, read-out: minimal inhibitory concentration (MIC)
  MIC: 6 µg/mL (≈ 13.2 µM)
[2]
  MIC: 25 µg/mL (≈ 55 µM)
[3]
  MIC: 25 µg/mL (≈ 55 µM)
[4]
  MIC: 25 µg/mL (≈ 55 µM)
[5]
  MIC: > 100 µg/mL
[6]
  MIC: 12.5 µg/mL (≈ 27.5 µM)
[7]
  MIC: 12.5 µg/mL (≈ 27.5 µM)
[8]
  MIC: 50 µg/mL (≈ 110 µM)
[9]
  MIC: 100 µg/mL (≈ 220 µM)
[10]; 24 h, read-out: minimal inhibitory concentration (MIC)
  MIC: 100 µg/mL (≈ 220 µM)
[11]; U20, agar serial dilution, 24 hours, 37° C., read-out: minimal inhibitory concentration (MIC)
  MIC: > 100 µg/mL
[12]
  MIC: 50 µg/mL (≈ 110 µM)
[13]
  MIC: > 100 µg/mL
[14]
  MIC: > 100 µg/mL
[15]
  MIC: > 100 µg/mL
[16]
  MIC: 25 µg/mL (≈ 55 µM)
[17]
  MIC: 100 µg/mL (≈ 220 µM)
[18]; agar serial dilution, 24 hours, 37° C., read-out: minimal inhibitory concentration (MIC)
  MIC: 50 µg/mL (≈ 110 µM)
[19]; Proteus mirabilis, 24 h, read-out: minimal inhibitory concentration (MIC)
  MIC: > 100 µg/mL
[20]
  MIC: > 100 µg/mL
[21]
  MIC: 23 µg/mL (≈ 50.6 µM)
[22]
  MIC: 23 µg/mL (≈ 50.6 µM)
[23]
  MIC: 15 µg/mL (≈ 33 µM)
[24]; 18 h, read-out: minimal inhibitory concentration (MIC)
  MIC: 125 µg/mL (≈ 275 µM)
[25]
  MIC: 25 µg/mL (≈ 55 µM)

## 7-[α-morpholino(3-methyl-1,2,4-oxadiazol-5-yl)-acetamido]-3-acetoxymethyl-3-cephem-4-carboxylic acid [Compound E]
[1]
  minimal inhibitory concentration (MIC): 6 µg/mL
[2]
  minimal inhibitory concentration (MIC): 6 µg/mL
[3]
  minimal inhibitory concentration (MIC): 12.5 µg/mL
[4]
  minimal inhibitory concentration (MIC): 12.5 µg/mL
[5]
  minimal inhibitory concentration (MIC): > 100 µg/mL
[6]
  minimal inhibitory concentration (MIC): 12.5 µg/mL
[7]
  minimal inhibitory concentration (MIC): 6 µg/mL
[8]
  minimal inhibitory concentration (MIC): 25 µg/mL
[9]
  minimal inhibitory concentration (MIC): > 100 µg/mL
[10]
  minimal inhibitory concentration (MIC): > 100 µg/mL
[11]; [26]
  minimal inhibitory concentration (MIC): > 100 µg/mL
[12]; 24 hours
  minimal inhibitory concentration (MIC): > 100 µg/mL
[13]
  minimal inhibitory concentration (MIC): > 100 µg/mL
[14]
  minimal inhibitory concentration (MIC): > 100 µg/mL
[15]
  minimal inhibitory concentration (MIC): > 100 µg/mL
[16]
  minimal inhibitory concentration (MIC): 3 µg/mL
[17]
  minimal inhibitory concentration (MIC): > 100 µg/mL
[18]; [26]
  minimal inhibitory concentration (MIC): 100 µg/mL
[19]
  minimal inhibitory concentration (MIC): > 100 µg/mL
[20]
  minimal inhibitory concentration (MIC): > 100 µg/mL
[21]
  minimal inhibitory concentration (MIC): 8 µg/mL
[22]
  minimal inhibitory concentration (MIC): 8 µg/mL
[23]
  minimal inhibitory concentration (MIC): 4 µg/mL
[24]
  minimal inhibitory concentration (MIC): > 125 µg/mL
[25]; [26]
  minimal inhibitory concentration (MIC): 12.5 µg/mL

## CC(=O)OCC1=C(C(=O)O)N2C(=O)[C@@H](NC(=O)Cc3nc(C)no3)[C@H]2SC1 [Compound D, sodium-7-[(3-methyl-1,2,4-oxadiazol-5-yl)-acetamido]-3-acetoxymethyl-3-cephem-4-carboxylate]
[1]
  minimal inhibitory concentration (MIC): 0.12 µg/mL
[2]
  MIC: 0.5 µg/mL
[3]
  MIC: 0.75 µg/mL
[4]
  MIC: 0.75 µg/mL
[5]
  MIC: 50 µg/mL
[6]
  MIC: 0.75 µg/mL
[7]
  MIC: 1.5 µg/mL
[8]
  MIC: 3 µg/mL
[9]
  MIC: 3 µg/mL
[10]
  minimal inhibitory concentration (MIC): 12.5 µg/mL
[11]; U20, 24 h, read-out: minimal inhibitory concentration (MIC), agar serial dilution, 24 hours, 37° C.
  MIC: 12.5 µg/mL
[12]
  MIC: 6 µg/mL
[13]
  MIC: > 100 µg/mL
[14]
  MIC: > 100 µg/mL
[15]
  MIC: > 100 µg/mL
[16]
  MIC: 1.5 µg/mL
[17]
  MIC: 25 µg/mL
[18]; 24 h, read-out: minimal inhibitory concentration (MIC), agar serial dilution, 24 hours, 37° C.
  MIC: 12.5 µg/mL
[19]
  minimal inhibitory concentration (MIC): 25 µg/mL
[20]
  MIC: > 100 µg/mL
[21]
  MIC: 0.6 µg/mL
[22]
  MIC: 1 µg/mL
[23]
  MIC: 0.6 µg/mL
[24]
  minimal inhibitory concentration (MIC): 30 µg/mL
[25]
  MIC: 0.5 µg/mL
